The text below walks through data of patent US10266564B2, “Cationic lipid cordiarimide hybrid compounds and a process for preparation thereof” (COUNCIL OF SCIENTIFIC & INDUSTRIAL RESEARCH, priority 2014, dated 2019).

Structures are written as SMILES. “Also recorded” adds a separate entry of the source.

The test system of one test is HepG2 cells. Nature of the test: Cell cycle analysis, PI staining by flow cytometry. The test is classed as cell-based, human. To be noted: HepG2, 24 h, 5, 10, and 20 mM as printed. The method, then:
For cell cycle distribution studies after treatment with different molar concentrations of 8i and 8k, HepG2 cells were fixed overnight in 70% ethanol, rehydrated in PBS with ribonuclease A (100 μg/ml) and Triton-X (1%) for 30 min at room temperature then PI (at 50 μg/ml) was added and incubated in the dark for 30 min and analyzed with a flow cytometer. Experiments were repeated two times independently.
Background: A flow cytometer gives signals particle by particle.

The next test addresses hLig1 (Homo sapiens, UniProt P18858). The test is described as follows: Kinetic analysis of ligation inhibition (Lineweaver-Burk). The class given is biochemical. The settings on record: 5 and 10 μM. The method, then: We measured the kinetics of hLig1 mediated ligation in the absence are presence of 8k at 5 and 10 μM concentrations and drew Lineweaver-Burk plots (FIG. 6B).

The test system of test [1] is mouse embryo fibroblasts (NIH/3T3). The test is described as follows: MTT assay for cell viability, NIH/3T3. The class given is cell-based. To be noted: NIH3T3, 48 h. The method, then: The human cancer cell lines e.g. HepG2 (hepatocellular carcinoma, ATCC® HB-8065™), PC-3 (human prostate cancer cells, ATCC® CRL-1435™), MCF-7 (breast adenocarcinoma, ATCC® […]), and mouse embryo fibroblasts (NIH/3T3, ATCC® CRL-1658™), used in the present study were obtained from the ATCC (American Type Culture Collection, USA and maintained in RPMI 1640 (Roswell Park Memorial Institute, Merck) with 10% FBS (Merck), supplemented with 1% antibiotic and antimycotic solution (Gibco, USA) at 37° C. in a humidified incubator with 5% CO2. All stock solutions of the compounds were prepared in cell culture grade DMSO (dimethyl sulfoxide) and stored at −20° C. Compounds were diluted in culture media prior to use in experiments. Annexin V-FITC apoptosis detection kits were purchased from Calbiochem. MTT dye was procured from Sigma-Aldrich. All the flow cytometry experiments were performed using a FACScan (Becton Dickinson, Mountain View, Calif.) flow cytometer, equipped with a single 488 nm argon laser.
Cell viability was assessed by MTT assay, which is based on the reduction of MTT by mitochondrial dehydrogenases of viable cells to form a purple formazan product. Briefly, cells (5-6×10^3/well) were plated in 96 well plates. After incubating overnight, the cells were treated with […] different concentrations (100, 50, 20, 10, 5, 2.5, 1.25 μM) in triplicates with the cationic lipidated cordiarimide and intermediates for 48 h. Subsequently, 10 μL of MTT (10 mg/mL) was added to each well and incubated for 3 h. The MTT formazan formed by viable cells was dissolved in 100 μL of DMSO and shaken for 10 min. The absorbance was measured on an ELISA reader. Each test was repeated at least three times. The concentration of the compound which gives the 50% growth inhibition value corresponding to IC50, was calculated using GraphPad prism 5 software. In the present invention we have screened 26 lipidated cordiarimides and the results are described in table 1.
(In general: Tetrazolium assays rely on reduction of a dye to a coloured formazan, in cell work by metabolically active cells.)

Sequence of hLig1 (P18858 whole entry): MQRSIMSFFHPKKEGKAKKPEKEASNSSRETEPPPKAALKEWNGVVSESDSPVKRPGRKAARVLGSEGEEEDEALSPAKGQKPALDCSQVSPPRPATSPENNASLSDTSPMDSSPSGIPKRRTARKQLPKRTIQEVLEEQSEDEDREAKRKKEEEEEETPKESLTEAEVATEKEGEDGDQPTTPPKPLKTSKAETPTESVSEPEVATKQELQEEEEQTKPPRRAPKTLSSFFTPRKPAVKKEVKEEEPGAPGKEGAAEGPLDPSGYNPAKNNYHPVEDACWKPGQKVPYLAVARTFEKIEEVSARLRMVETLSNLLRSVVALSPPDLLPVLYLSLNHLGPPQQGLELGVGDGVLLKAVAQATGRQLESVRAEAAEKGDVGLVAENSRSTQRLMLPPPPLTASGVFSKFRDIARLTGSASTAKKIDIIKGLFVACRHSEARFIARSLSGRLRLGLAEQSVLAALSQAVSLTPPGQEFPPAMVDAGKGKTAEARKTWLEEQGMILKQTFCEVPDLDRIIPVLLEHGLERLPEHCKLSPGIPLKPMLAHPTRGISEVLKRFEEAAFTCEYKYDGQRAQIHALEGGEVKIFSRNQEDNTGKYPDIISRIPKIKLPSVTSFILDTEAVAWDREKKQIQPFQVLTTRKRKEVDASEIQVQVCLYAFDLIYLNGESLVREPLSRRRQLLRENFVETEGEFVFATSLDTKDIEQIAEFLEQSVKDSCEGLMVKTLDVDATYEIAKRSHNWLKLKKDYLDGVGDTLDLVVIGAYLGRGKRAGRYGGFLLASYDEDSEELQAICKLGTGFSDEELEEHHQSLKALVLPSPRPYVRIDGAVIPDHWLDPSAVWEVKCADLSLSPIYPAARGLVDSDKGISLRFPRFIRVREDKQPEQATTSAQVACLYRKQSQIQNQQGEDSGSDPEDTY

One may read the IC50 as the concentration that gives 50% inhibition. Read a low IC50 as greater potency in that assay. In the case of `CCCCCCCCCCCC[N+](C)(CCCCCCCCCCCC)CC(=O)NC1CCC(=O)N(CC(=O)c2ccccc2)C1=O` (stereo not drawn) [Compound 8k, {[2,6-Dioxo-1-(2-oxo-2-phenyl-ethyl)-piperidin-3-ylcarbamoyl]-methyl}-Didodecyl-methyl-ammonium iodide], the “effect on cell cycle progression” value in the test with HepG2 cells is “significant accumulation of cells in G0/G1 phase; also recorded: blocked the cell cycle in G0/G1 phase”. The “mode of inhibition by enzyme kinetics” value on hLig1 is listed as “un-competitively”. Also, in test [1], the IC50 was greater than 20 µM.
